From patent publication US20100317575A1, “PHARMACEUTICAL COMPOSITION COMPRISING A PYRAZOLE-O-GLUCOSIDE DERIVATIVE” (BOEHRINGER INGELHEIM INTERNATIONAL GMBH, priority 2007, published 2010)

Assays:
[1] = test system: Male Zucker Diabetic Fatty (ZDF) rats (ZDF/Crl-Lepr^fa); experiment: HbA1c on day 37 of treatment in ZDF rats; type: in vivo, rat; conditions: overnight fasted
Protocol: All experimental protocols concerning the use of laboratory animals are reviewed by a federal Ethics Committee and approved by governmental authorities. Male Zucker Diabetic Fatty (ZDF) rats (ZDF/Crl-Lepr^fa) at the age of 12 weeks are treated for 5 weeks with the pyrazole-O-glucoside (16), i.e. 4-(2-fluoro-4-methoxy-benzyl)-1-isopropyl-5-methyl-3-β-D-glucopyranos-1-yloxy-1H-pyrazole, at a dose of 10 mg/kg administered twice daily in the morning and evening, or with metformin at a dose of 200 mg/kg once daily in the morning, or with the combination of the pyrazole-O-glucoside and metformin at the same dose regimens. Vehicle for administration is 0.5% aqueous hydroxyethylcellulose containing 0.015% Polysorbat 80. Control animals are dosed twice daily with vehicle alone. Blood samples are obtained by tail bleed. Blood glucose is measured with a glucometer and HbA1c is measured with an automated analyzer (Cobas Integra 400, Roche). Prior to start of treatment, the animals are randomized for blood glucose and HbA1c (n=10/group).
On day 37 of treatment, HbA1c is measured pre-dose in tail blood obtained from overnight fasted animals. The data are presented as mean±SEM.

[2] = test system: Male Zucker Diabetic Fatty (ZDF) rats (ZDF/Crl-Lepr^fa); experiment: Blood glucose AUC 0-7 h on day 20 of treatment in ZDF rats; type: in vivo, rat
Protocol: All experimental protocols concerning the use of laboratory animals are reviewed by a federal Ethics Committee and approved by governmental authorities. […] Control animals are dosed twice daily with vehicle alone. Blood samples are obtained by tail bleed. Blood glucose is measured with a glucometer and HbA1c is measured with an automated analyzer (Cobas Integra 400, Roche). Prior to start of treatment, the animals are randomized for blood glucose and HbA1c (n=10/group). On day 20 of treatment, blood glucose is measured in tail blood pre-dose, 0.5 h, 1.5 h, 3 h, and 7 h after dosing. Blood glucose is quantified by calculating the total glucose AUC 0-7 h. The data are presented as mean±SEM. The two-sided unpaired Student t-test is used for statistical comparison of the control group and the active groups.

the diabetic = conditions: metformin on its own; cited from earlier work

SMILES: COc1ccc(Cc2c(O[C@@H]3O[C@H](CO)[C@@H](O)[C@H](O)[C@H]3O)nn(C(C)C)c2C)c(F)c1 [(16), 4-(2-fluoro-4-methoxy-benzyl)-1-isopropyl-5-methyl-3-β-D-glucopyranos-1-yloxy-1H-pyrazole]
- reduction of HbA1c (numerically) versus control ([1]; 10 mg/kg twice daily): 2.1%
- reduction of total glucose AUC 0-7 h versus control ([2]; 10 mg/kg twice daily): 38%

SMILES: CN(C)C(=N)N=C(N)N [Metformin, metformin]
- reduction of HbA1c (numerically) versus control ([1]; metformin 200 mg/kg once daily): 0.3%
- average improvement in the HbA1c value (the diabetic): 1.0-1.5%
- reduction of total glucose AUC 0-7 h versus control ([2]; metformin 200 mg/kg once daily): 11%
